Measured values published in the NIST ThermoML archive (doi:10.1021/je9003959).

Assay: refractive index (Na D-line) (dimensionless); xn = mol fraction of the nth substance listed
Conditions: 101 kPa, Liquid, Standard Abbe refractometry

CCN1CCCC1=O [1-ethyl-2-pyrrolidinone] + O
refractive index
Conditions | 293 K | 298 K | 303 K | 313 K | 323 K
x1 = 0.022 | 1.35197 | 1.35144 | 1.34954 | 1.3488 | 1.34707
x1 = 0.05 | 1.37085 | 1.37012 | 1.3694 | 1.36692 | 1.36431
x1 = 0.1 | 1.39584 | 1.39478 | 1.39291 | 1.39022 | 1.38757
x1 = 0.2 | 1.42603 | 1.42432 | 1.42304 | 1.41887 | 1.41711
x1 = 0.3 | 1.44127 | 1.43983 | 1.43715 | 1.4331 | 1.42913
x1 = 0.4 | 1.44975 | 1.44776 | 1.44605 | 1.4418 | 1.43762
x1 = 0.5 | 1.4551 | 1.45307 | 1.45147 | 1.44694 | 1.44273
x1 = 0.6 | 1.45859 | 1.45647 | 1.45435 | 1.45035 | 1.44622
x1 = 0.7 | 1.46118 | 1.459 | 1.4568 | 1.4527 | 1.44864
x1 = 0.8 | 1.46326 | 1.46096 | 1.4586 | 1.45496 | 1.45075
x1 = 0.9 | 1.46478 | 1.4623 | 1.46016 | 1.45641 | 1.45217
x1 = 1 | 1.46461 | 1.46192 | 1.45791 | 1.45415 | 1.45147
